Source: ChEMBL document CHEMBL1147629, “Beyond U0126. Dianion chemistry leading to the rapid synthesis of a series of potent MEK inhibitors” (Bioorg Med Chem Lett, 2004)

How the values were obtained:
[1] = system: COS-7; test: Inhibitory concentration against AP-1 transcription in COS-7 cells; settings: Chlorocebus aethiops
[2] = target: T1, Dual specificity mitogen-activated protein kinase kinase 1 (Homo sapiens, UniProt Q02750); test: Inhibitory potency against mitogen activated protein kinase kinase 1
Target sequence in this assay (Q02750 whole entry): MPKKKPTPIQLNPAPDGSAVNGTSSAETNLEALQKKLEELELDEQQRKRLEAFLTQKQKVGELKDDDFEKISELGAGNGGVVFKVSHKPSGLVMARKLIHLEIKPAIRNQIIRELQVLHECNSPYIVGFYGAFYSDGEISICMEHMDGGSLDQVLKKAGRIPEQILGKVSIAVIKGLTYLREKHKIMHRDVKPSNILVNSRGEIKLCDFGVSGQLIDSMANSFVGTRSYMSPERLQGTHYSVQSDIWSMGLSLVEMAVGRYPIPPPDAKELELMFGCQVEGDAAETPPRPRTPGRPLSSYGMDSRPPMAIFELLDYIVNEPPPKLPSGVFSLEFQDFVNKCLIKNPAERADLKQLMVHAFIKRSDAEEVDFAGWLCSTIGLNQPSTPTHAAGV

[3] = system: COS-7
[4] = target: T1, Dual specificity mitogen-activated protein kinase kinase 1; test: Inhibitory potency against mitogen activated protein kinase kinase 1 at 10 uM
Target sequence in this assay (Q02750 whole entry, looked up): as the sequence (Q02750 whole entry) above

[5] = target: T2, Dual specificity mitogen-activated protein kinase kinase 3 (Homo sapiens, UniProt P46734); test: Inhibitory potency against MAP kinase kinase 3 (MKK3); type: functional
T2 sequence (P46734 whole entry): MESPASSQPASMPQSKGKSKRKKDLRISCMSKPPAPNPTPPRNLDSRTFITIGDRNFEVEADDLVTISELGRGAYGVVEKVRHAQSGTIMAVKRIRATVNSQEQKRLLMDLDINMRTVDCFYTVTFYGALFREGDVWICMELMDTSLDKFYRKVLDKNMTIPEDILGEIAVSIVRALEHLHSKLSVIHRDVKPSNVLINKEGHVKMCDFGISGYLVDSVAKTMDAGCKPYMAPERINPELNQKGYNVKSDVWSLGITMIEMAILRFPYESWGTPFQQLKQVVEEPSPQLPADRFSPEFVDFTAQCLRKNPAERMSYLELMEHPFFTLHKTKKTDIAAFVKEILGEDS

[6] = Inhibitory potency against Mitogen activated protein kinase kinase 4; type: functional
[7] = system: Mus musculus; test: In vivo effective dose against TPA-induced ear edema in mouse upon intraperitoneal administration; type: functional; settings: ip

Row | IC50 [2] [nM] | SMILES | IC50 [1] [nM] | other results
1 | – | N#C/C(=C(/N)Sc1ccccc1N)c1ccc(C(=O)c2ccccc2)cc1 | 3130 | –
2 | 14 | COC(=O)c1ccc(C(O)c2cccc(/C(C#N)=C(\N)Sc3ccccc3N)c2)cc1 (stereo not drawn) | 290 | –
3 | 53 | N#C/C(=C(/N)Sc1ccccc1N)c1cccc(C(O)c2cccc(C(F)(F)F)c2)c1 (stereo not drawn) | 5700 | –
4 | – | Cc1cccc(C(O)c2cccc(/C(C#N)=C(\N)Sc3ccccc3N)c2)c1 (stereo not drawn) | 2400 | –
5 | 53 | N#C/C(=C(/N)Sc1ccccc1)c1cccc(C(O)c2ccc(C#N)cc2)c1 (stereo not drawn) | 1200 | –
6 | 47 | N#C/C(=C(/N)Sc1ccccc1N)c1cccc(C(O)c2cccc3ccccc23)c1 (stereo not drawn) | 2590 | –
7 | 53 | N#C/C(=C(/N)Sc1ccc(N)cc1)c1cccc(C(O)c2ccc(C#N)cc2)c1 (stereo not drawn) | – | –
8 | – | COc1ccccc1S/C(N)=C(\C#N)c1cccc(C(O)c2ccc(C#N)cc2)c1 (stereo not drawn) | – | IC50 [3]: Not Active
9 | – | N#C/C(=C(/N)Sc1ccccc1N)c1cccc(C(O)c2ccccn2)c1 (stereo not drawn) | 11800 | –
10 | 7 | N#C/C(=C(/N)Sc1ccccc1N)c1cccc(C(O)c2ccc(C#N)cc2)c1 (stereo not drawn) | 320 | –
11 | 17 | N#C/C(=C(/N)Sc1ccccc1N)c1cccc(C(O)c2cccc([N+](=O)[O-])c2)c1 (stereo not drawn) | 1600 | –
12 | 17 | N#C/C(=C(/N)Sc1ccccc1N)c1cccc(C(O)c2ccsc2)c1 (stereo not drawn) | 2400 | –
13 | – | N#C/C(=C(/N)Sc1ccccc1O)c1cccc(C(O)c2ccc(C#N)cc2)c1 (stereo not drawn) | 640 | –
14 | – | N#C/C(=C(/N)Sc1ccc(N)cc1)c1cccc(Cc2ccccc2)c1 | 38800 | –
15 | – | Cc1ccc(C(O)c2cccc(/C(C#N)=C(\N)Sc3ccccc3N)c2)cc1 (stereo not drawn) | 3000 | –
16 | – | N#C/C(=C(/N)Sc1ccccc1N)c1cccc(C(O)c2cccnc2)c1 (stereo not drawn) | 2720 | –
17 | 13 | N#C/C(=C(/N)Sc1ccccc1N)c1cccc(C(O)c2cccc(C#N)c2)c1 (stereo not drawn) | 1080 | –
18 | 25 | N#C/C(=C(/N)Sc1ccccc1O)c1cccc(C(O)c2cccc([N+](=O)[O-])c2)c1 (stereo not drawn) | 3220 | –
19 | – | N#CC(=C(/N)Sc1ccccc1N)/C(C#N)=C(\N)Sc1ccccc1N | 1000 | –
20 | 2220 | N#C/C(=C(/N)Sc1ccccc1N)c1cccc(C(O)(c2ccccc2)c2ccccc2)c1 | – | IC50 [3]: Not Active
21 | – | Cc1ccccc1C(O)c1cccc(/C(C#N)=C(\N)Sc2ccc(N)cc2)c1 (stereo not drawn) | 3670 | –
22 | 25 | N#C/C(=C(/N)Sc1ccccc1N)c1cccc(C(O)c2ccc3c(c2)OCCO3)c1 (stereo not drawn) | 2100 | –
23 | 255 | N#C/C(=C(/N)Sc1ccccc1N)c1cccc(C(O)c2ccc(-c3nnn(C(c4ccccc4)(c4ccccc4)c4ccccc4)n3)cc2)c1 (stereo not drawn) | 6880 | –
24 | 183 | CC(O)c1cccc(/C(C#N)=C(\N)Sc2ccccc2N)c1 (stereo not drawn) | 66700 | –
25 | – | N#C/C(=C(/N)Sc1ccccc1N)c1cccc(C(O)c2ccoc2)c1 (stereo not drawn) | 7020 | –

Row | IC50 [2] [nM] | SMILES | IC50 [1] [nM] | other results
26 | 8 | N#C/C(=C(/N)Sc1ccccc1N)c1cccc(C(O)c2ccc([N+](=O)[O-])cc2)c1 (stereo not drawn) | 300 | –
27 | – | N#C/C(=C(/N)Sc1ccccc1N)c1cccc(C(O)Cc2ccccc2)c1 (stereo not drawn) | 19900 | –
28 | – | N#C/C(=C(/N)Sc1ccccc1N)c1cccc(Oc2ccccc2)c1 | 3030 | –
29 | – | N#C/C(=C(/N)Sc1ccccc1N)c1cccc(C(=O)c2ccccc2)c1 | 6170 | –
30 | – | CC(O)(c1ccccc1)c1cccc(/C(C#N)=C(\N)Sc2ccccc2N)c1 (stereo not drawn) | – | IC50 [3]: Not Active
31 | – | CN(C(=O)c1cccc(/C(C#N)=C(\N)Sc2ccc(N)cc2)c1)c1ccccc1 | – | inhibition [4]: 45%
32 | 140 | N#CC(=C(N)Sc1ccccc1N)c1ccccc1 | – | –
33 | – | N#C/C(=C(/N)Sc1ccc(N)cc1)c1cccc(C(O)c2ccccc2)c1 (stereo not drawn) | 10700 | –
34 | – | N#C/C(=C(/N)Sc1ccccc1N)c1cccc(C(O)c2ccncc2)c1 (stereo not drawn) | 1400 | IC50 [5]: > 1000 nM; IC50 [6]: > 1000 nM; ED50 [7]: 5 mg/kg
35 | 57 | N#C/C(=C(/N)Sc1ccccc1N)c1cccc(C(O)c2ccc(C(F)(F)F)cc2)c1 (stereo not drawn) | 3970 | –
36 | 76 | N#C/C(=C(/N)Sc1ccccc1N)c1cccc(C(O)c2ccc3ccccc3c2)c1 (stereo not drawn) | 3250 | –
37 | – | Cc1cccc(C(O)c2cccc(/C(C#N)=C(\N)Sc3ccc(N)cc3)c2)c1 (stereo not drawn) | – | IC50 [3]: Not Active
38 | 340 | CC(C)(O)c1cccc(/C(C#N)=C(\N)Sc2ccccc2N)c1 | 40000 | –
39 | 17 | N#C/C(=C(/N)Sc1ccccc1N)c1cccc(C(O)c2cccs2)c1 (stereo not drawn) | 2220 | –
40 | 330 | C[n+]1ccc(C(O)c2cccc(/C(C#N)=C(\N)Sc3ccccc3N)c2)cc1 (stereo not drawn) | 50000 | –
41 | 44 | N#C/C(=C(/N)Sc1ccccc1N)c1cccc(C(O)c2c(F)c(F)c(F)c(F)c2F)c1 (stereo not drawn) | – | –
42 | – | N#C/C(=C(/N)Sc1ccccc1N)c1cccc(Cc2ccccc2)c1 | 3200 | –
43 | – | N#C/C(=C(/N)Sc1ccccc1N)c1cccc(C(O)c2ccccc2)c1 (stereo not drawn) | 2070 | –
44 | 8 | N#C/C(=C(/N)Sc1ccccc1N)c1cccc(C(O)c2ccc([N+](=O)[O-])cc2[N+](=O)[O-])c1 (stereo not drawn) | 300 | –
45 | 56 | N#C/C(=C(/N)Sc1ccccc1N)c1cccc(C(O)C2CCCCC2)c1 (stereo not drawn) | 4510 | –
46 | – | N#C/C(=C(/N)Sc1ccccc1N)c1cccc(C(O)c2ccco2)c1 (stereo not drawn) | 12200 | –
47 | – | Cc1ccc(C(O)c2cccc(/C(C#N)=C(\N)Sc3ccc(N)cc3)c2)cc1 (stereo not drawn) | – | IC50 [3]: Not Active
48 | – | Cc1ccccc1C(O)c1cccc(/C(C#N)=C(\N)Sc2ccccc2N)c1 (stereo not drawn) | 2690 | –
49 | 4010 | CN(C(=O)c1cccc(/C(C#N)=C(\N)Sc2ccccc2N)c1)c1ccccc1 | – | –
